Counter-ions that a name gives are not always drawn. Like-named read-outs stand apart in the source and are kept apart here. Starred links: 1 amine or outer side, 2 acyl side, 3 side chain; linkers in the order of their positions; H or OH if unused. Positions of bridges follow the written chain, without caps; N, C: chain ends. Non-standard residues stand in square brackets, D forms with d. Residues, ends and D or L forms follow the SMILES beside them. Chains are numbered I, II in the order given. Actinocin(9to1) = Cc1c2oc3c(C)ccc(C(=O)[*:1])c3nc-2c(C(=O)[*:2])c(N)c1=O; NMeV = CN[C@H](C(=O)O)C(C)C; Sar = CNCC(=O)O
Columns and labels:
[1] = test system: L. mexicana intracellular amastigotes; assay: Growth inhibition of intracellular amastigotes in J774A.1 macrophages (Renilla luciferase luminescence); type: cell-based; conditions: Leishmania mexicana
Protocol: (§1) L. mexicana (MNYZ/BZ/62/M379) or L. donovani (LdBob strain) parasites expressing the Renilla luciferase gene from a rRNA gene locus were used to infect J774A.1 macrophages. Growth of intracellular amastigotes was measured using a luminescence assay, as detailed previously. The growth inhibitor activities of compounds were tested against bloodstream form Lister 427 T. brucei in 96-well plates containing 1 X 10^5 parasites per well in 0.2 ml HMI-11 medium (Gibco/Thermo Fisher). Compounds (2 μl volumes in DMSO) were added to the parasites using serial 3-fold dilutions to cover a range of concentrations from about 10 μM to 1 nM. After 48 h incubation at 37°C under a humidified 5% CO2 atmosphere, 10 μl of 10% Triton X-100 and 100 X stock SYBR Green I (Sigma-Aldrich) in PBS was added and florescence measured (excitation 497 nm; emission 520 nm) after 1 h incubation in the dark using a Spectra Max Gemini XPS fluorimeter (Molecular Devices). Data were log transformed and EC50 values were determined using GraphPad Prism 6 (GraphPad Software). In the absence of growth inhibiting compounds, the parasites grew from an initial density of 5 X 10^5 cells/mL to ~3 X 10^6 cells/mL.
[…]. These were chosen as candidates for further study. From these 230 compounds, we were able to repurchase 113 from commercial vendors. These compounds were characterized for purity by ultra-performance liquid chromatography using ultraviolet spectroscopy and evaporative light scattering detection and identity by mass spectrometry. All validated compounds were profiled for activity against intracellular amastigotes, the disease-causing stage of the life cycle. Intracellular amastigote activity was determined using a strain of L. mexicana in which the Renilla luciferase gene was integrated into the rRNA locus, allowing robust expression for measuring amastigote growth within cultured macrophages. All 113 compounds were applied at 1 μM concentration for 96 h to J774A.1 macrophages infected with L. mexicana luciferase-expressing parasites. […].
Next, we generated dose-response curves for these 55 compounds against intracellular amastigotes and independently against J774A.1 macrophages to establish the relative potency of each compound against the pathogen and its host cell. […]. The nine remaining compounds, each representing a unique chemical scaffold (compounds 1–9, Fig 3), were designated top hits (Fig 1).

[2] = test system: L. donovani intracellular amastigotes; assay: as above; type: cell-based; conditions: Leishmania donovani
Protocol: as §1

[3] = test system: bloodstream form Lister 427 T. brucei; assay: Growth inhibition of T. brucei bloodstream forms (SYBR Green I); type: cell-based; conditions: Trypanosoma brucei, read-out: T. brucei EC50
Protocol: as §1

J774A.1 macrophages = assay: Cytotoxicity to J774A.1 macrophages (dose-response); type: cell-based; conditions: for EC50: Mus musculus
Protocol: Cytotoxicity of compounds to J774.A1 macrophages was determined by dose-response curves as described previously. In the absence of growth inhibitors or DMSO, the macrophages increased in number ~6-fold over 96 h in Minimum Essential Medium, employed for both macrophage infections and the toxicity assays.

[4] = Mouse plasma protein binding assay (Rapid Equilibrium Dialysis); type: in vitro ADME; conditions: mouse, mouse plasma, pH 7.4; Conc. 4 μM
Protocol: A Rapid Equilibrium Dialysis (RED) Plate (Thermo Scientific, catalog #, PI-90007) was used to determine the percentage of compound binding to mouse plasma proteins (Thermo Scientific, catalog #, 50642085). The positive control for this experiment was propranolol HCl (295.807 g/mol) and the internal standard was warfarin in methanol (2 μM). 10 mM stocks of compound in DMSO were diluted with DMSO and acetonitrile to three different intermediate concentrations: high (2 mM), medium (0.4 mM) and low (0.08 mM) concentration in DMSO:acetonitrile (1:4, v:v). 10 mM stock of propranolol in DMSO were diluted to 0.4 mM concentration in DMSO:acetonitrile (1:4 v:v).
In 10 Eppendorf tubes, the control (10 μL) or each of three compound dilutions (10 μL) were each added to separate aliquots of 990 μL mouse plasma. Potassium phosphate buffer (500 μL, 0.1 M, pH 7.4, 37 °C) was placed in every white well of the RED plate and each plasma/compound mixture was added to each of 3 RED wells (300 μL). The RED plate holds triplicate samples of one control (final concentration […]) and one compound (final concentrations: 20 μM, 4 μM, […]). The RED Plate was sealed and incubated at 37 °C shaking at 250 rpm for 4 hours. After incubation, aliquots (50 μL) from each well in the RED plate were transferred to an assay plate (pION Inc., MA, #110323). In order to create a uniform matrix in every well of the assay plate, plasma (50 μL) was added to each of the wells that already contained buffer and potassium phosphate buffer (50 μL) was added to each of the wells that already contained plasma/compound. Pre-cooled internal standard (300 μL) was added to the assay plate to quench the reaction. The quenched plate was then centrifuged (5810R, Eppendorf, Westbury, NY) at 3000 rpm for 20 minutes.
The percentage of free compound [1] and bound compound [2] was calculated usng the AUC ratio of compound to warfarin from the SIR spectra. For reporting data, % Free = Concentration buffer/Concentration plasma *100 %, and % Bound = 100% - % Free.

[5] = test system: L. mexicana promastigotes; assay: High-throughput assay for growth inhibition of promastigotes (SYBR Green I); type: cell-based
Protocol: Into each well of 384-well microplates (black polystyrene, clear bottom, tissue culture treated, Corning), 15 μl of medium (DME-L [41] plus 100 μM xanthine and 10% heat inactivated fetal calf serum) was dispensed with a liquid dispenser (Matrix Wellmate, Thermo Scientific). Stock compounds, dissolved in DMSO at a fixed concentration of 10 mM, were pin-transferred (V&P Scientific) into the microplate to the desired final concentration using an automated robot arm. To each well of the plates, 15 μl of L. mexicana promastigotes (strain MNYZ/BZ/62/M379, 2 x 10^6/mL) was added with the Wellmate dispenser. Microplates were incubated (Liconic) at 28°C and 5% CO2 for 72 h. After incubation, 10 μl of lysis/dye solution (5X SYBR Green I, 5% Triton X-100 in PBS) was added to each well. Plates were shaken at 1000 rpm, incubated at room temperature for 20 min, and fluorescence signal measured (excitation 485 nm, emission 535 nm) with the Envision plate reader (PerkinElmer).
The initial promastigote screen was performed with the St. Jude Chemical Biology & Therapeutics (CBT) library consisting of 596,414 compounds. Library compounds were filtered by several computational methods to remove those likely to have undesirable physical or biological properties and biased towards oral bioavailability. In this way we focused the collection on compounds most likely to be effective in cellular models of activity, without structural features that would pose a challenge to drug development. In the primary screen, compounds were applied to promastigotes of L. mexicana at a fixed concentration of 10 μM, and parasite proliferation was monitored, following a 72 h incubation, by quantifying total DNA content after lysis using the nucleic acid binding dye SYBR Green I [45].
To confirm the activity of the primary hits and improve confidence that they would be reasonable starting points for drug development, a variety of secondary screens and analyses were employed (Fig 1A). […]. In parallel, mammalian cell growth inhibition was determined using in vitro proliferation assays with normal human fibroblasts (BJ cells). […]. To further triage the hits, we carried out a chemical structure analysis for the 2,703 primary hit compounds utilizing topology mapping and clustering methodology. We identified a wide range of chemotypes, including several scaffolds with potential structure-activity relationships (SARs), based on their dose response activity (Fig 2). Validated hits were then culled by eliminating scaffolds with less favorable drug development properties such as charged planar structures, reactive electrophilic warheads, known pan-assay interference motifs (PAINS), and compounds displaying gross rule of five noncompliance. Finally, we prioritized scaffolds with the possibility of facile chemical modification to generate a substantial number of structural analogs for future SAR and structure-property relationship (SPR) studies.

[6] = J774.A1, intracellular amastigotes in J774A.1 macrophages, mean ± standard deviation, n = 2, read-out: L. mexicana EC50
[7] = J774.A1, intracellular amastigotes in J774A.1 macrophages, mean ± standard deviation, n = 2, read-out: L. donovani EC50
[8] = bloodstream form, mean ± standard deviation, n = 2
[9] = J774.A1, host macrophage, tested up to 10 μM, mean ± standard deviation, n = 2, read-out: J774A.1 EC50
[10] = Leishmania mexicana, bracketed references point to earlier reports of antileishmanial activity, read-out: EC50 of known inhibitors identified by the HTS
[11] = bracketed references point to earlier reports of antileishmanial activity, read-out: EC50 of known inhibitors identified by the HTS

With CC[C@H]1CN2CCc3cc(OC)c(OC)cc3[C@@H]2C[C@@H]1C[C@H]1NCCc2cc(O)c(OC)cc21 [Compound 1, cephaeline] the EC50 ([1]; J774.A1, read-out: L. mexicana EC50) was 0.6 ± 0.2 nM, the EC50 ([2]; J774.A1, read-out: L. donovani EC50) was 2 ± 0.5 nM and the EC50 [3] was 800 ± 200 nM. It also gave an EC50 (J774A.1 macrophages; J774.A1, read-out: J774A.1 EC50) of 920 ± 900 nM.

Fc1ccccc1Nc1nc(NCc2ccccc2)c2ccccc2n1 [Compound 2] gave an EC50 [1, 6] of 44 ± 23 nM, an EC50 [2, 7] of 130 ± 20 nM and an EC50 [3, 8] of 2000 nM. For the same molecule, the EC50 (J774A.1 macrophages; [9]) was greater than 10000 nM and the “Reduction in viability / inhibition of host macrophage J774A.1 in dose-response studies” value (J774A.1 macrophages; up to 10 μM) was “no reduction in viability”.

In the case of CCN(CC)c1ccc(C2N(C)c3ccccc3N2C)cc1 [Compound 6], the EC50 [1, 6] is reported as 5.5 ± 4.9 nM, the EC50 [2, 7] is reported as 6 ± 7 nM and the EC50 [3, 8] is reported as 2000 ± 400 nM. For the same molecule, the EC50 (J774A.1 macrophages; [9]) was 3500 ± 700 nM.

Molecule CCCCCCCCn1c2c(c(=N)c3ccccc31)CCC2 [Compound 7] has an EC50 [1, 6] of 7 ± 6 nM, an EC50 [2, 7] of 11 ± 8 nM and an EC50 [3, 8] of 460 ± 400 nM. The EC50 (J774A.1 macrophages; [9]) was 700 ± 300 nM.

CC(C)NCC(O)COc1cccc2ccccc12 (centres unmarked) [Propranolol HCl, reference compound] showed a fraction unbound at 4 h, 4 μM [4] of 0.284.

Molecule Cc1c2oc3c(C)ccc(C(=O)N[C@@H]4C(=O)N[C@H](C(C)C)C(=O)N5CCC[C@H]5C(=O)N(C)CC(=O)N(C)[C@@H](C(C)C)C(=O)O[C@@H]4C)c3nc-2c(C(=O)N[C@@H]2C(=O)N[C@H](C(C)C)C(=O)N3CCC[C@H]3C(=O)N(C)CC(=O)N(C)[C@@H](C(C)C)C(=O)O[C@@H]2C)c(N)c1=O [actinomycin D] (I: T[dV]P[Sar][NMeV] / II: T[dV]P[Sar][NMeV]; ester I:1-I:C, II:1-II:C; linker I:N-II:N via Actinocin(9to1)) has an EC50 [5, 10] of 360 nM.

In the case of COc1ccc(C[C@H]2NC[C@H](O)[C@H]2OC(C)=O)cc1 [anisomycin], the EC50 [5, 11] is reported as 580 nM.

CN(C)c1ccc(C(=C2C=CC(=[N+](C)C)C=C2)c2ccc(N(C)C)cc2)cc1 [crystal violet] gave an EC50 [5, 10] of 290 nM.

For CCN(CC)C(=S)SSC(=S)N(CC)CC [disulfiram], the EC50 [5, 10] was 500 nM.

In the case of N=C(N)c1ccc(OCCCCCOc2ccc(C(=N)N)cc2)cc1 [pentamidine], the “Inhibition of proliferation (HTS positive control)” value ([5]; 72 h, primary screen conditions) is reported as 100% and the EC50 ([5]; Leishmania mexicana, 72 h, median over HTS plates, interquartile range 1.7–3.1, read-out: EC50 of the control per screening plate (median)) is reported as 2300 nM.

Work on CN(C)C(=S)SSC(=S)N(C)C [thiram] yielded an EC50 [5, 10] of 1770 nM.

With avicin the EC50 [5, 11] was 1500 nM.

Reference: publication PMC5764437, “Discovery of novel, orally bioavailable, antileishmanial compounds using phenotypic screening” (PLoS Neglected Tropical Diseases, 2017)
